In this experiment the test system is Vero E6 cytotoxicity, luminescence viability. The experiment can be described thus: PubChem AID 435015. As to conditions: at 20 µM; active compounds read high.

Active and inactive are the calls of the source. No rule for the calls is given here.

With `CC(C)(C)NC(=O)C(c1cccnc1)N(C(=O)c1ccco1)c1ccc(C(C)(C)C)cc1` (stereo unspecified), the inhibition was 23% (inactive).

As a reminder, the inhibition is the share of the control response that was lost under treatment.

The values are drawn from PubChem BioAssay AID435015 (The Scripps Research Institute Molecular Screening Center, 2010).
